From ChEMBL document CHEMBL3430912, “GSK Tres Cantos Anti-Kinetoplastid Screening (TCAKS) Data”

Tests used:
[1] = test system: Leishmania donovani; test: (§1) GSK_TCAKS: pIC50 Leishmania donovani Imaging: Infected Macrophages. Assay plates (384-well) were prepared by adding 250nL of compound to each well. For single shot assay, the final compound concentration was 5 uM. […] Automated image analysis was performed with a script developed on Acapella High Content Imaging and Analysis Software (PerkinElmer). Output: Percent of infected macrophage cells were reported for each well.; format: functional, organism-based, Homo sapiens; details: THP-1
[2] = test system: Trypanosoma cruzi; test: (§2) GSK_TCAKS: pIC50 Trypanosoma cruzi Imaging: Infected Cells. […] Cells were then washed once with PBS before infection. T. cruzi trypomastigotes, collected at days 5 to 8 after infection from LLC-MK2 parasite infected cultures, were allowed to swim out for 4h at 37C from a centrifuged pellet (2,500 rpm/10 min/room temperature). Trypomastigotes were then collected and counted in a CASY Cell Counter. Trypomastigotes, in supplemented DMEM, were added to H9c2 cultures in a multiplicity of infection of 1 and incubated for 18 h. Cells were washed once with PBS before incubation of the infected H9c2 monolayer with trypsin (Life-Technologies) to detach cells from the flask. Cells were counted in a CASY Cell Counter using a 150 um capillary and their density set at 5 * 10^4 cells per mL in supplemented assay DMEM. Infected H9c2 were dispensed into 384-well poly-lysine coated assay plates at 50uL per well using a Multidrop Combi dispenser. After seeding them, the plates were incubated at 37C, 5% CO2 for 72h. Cultures were then fixed and stained by addition of 50 uL of a solution containing 8% formaldehyde and 4 uM DRAQ5 DNA dye (BioStatus, UK) per well. […] Five images were collected per well for reliable statistical analysis. Automated image analysis was performed with a script developed on Acapella High Content Imaging and Analysis Software (PerkinElmer). Output: percentage of infected cells per well as a second infection marker.; format: functional, organism-based, Rattus norvegicus; details: H9c2, 4 h
[3] = GSK_TCAKS: pIC50 HepG2 human cell line viability assay using luminiscence. […] Seeding density was checked to ensure that new mono-layers were not more than 50% confluent at the time of harvesting. Cell suspension was added to 500 mL of the same medium at a final density of 1.2 * 10^5 cells/mL. This cell suspension was dispensed (25 uL, 3000 cells per well) into 384-well clear-bottom plates using a Multidrop Combi dispenser. Prior to addition of the cell suspension, the screening compounds (250 nL) were pre-dispensed into the plates with an Echo liquid handler. Plates were incubated for 48 h at 37C, 5% CO2. After incubation, plates equilibrated at room temperature for 30 min before proceeding to develop the luminescent signal. The signal developer, CellTiter-Glo Reagent, was allowed to equilibrate at room temperature for 30 min and added to the plates (25uL per well) using a Multidrop Combi dispenser. Plates were left for 10 min at room temperature for stabilization and then read using a ViewLux.; format: toxicity, cell-based
[4] = test system: Leishmania donovani; test: as §1, with “Amastigotes/Macrophages.” for “Infected Macrophages.”, “Average number” for “Percent”, “amastigotes per” for “infected”, “cell” for “cells”; format: functional, organism-based, Homo sapiens; details: THP-1
[5] = biological target: Sterol 14-alpha demethylase (Trypanosoma cruzi (strain CL Brener), UniProt Q7Z1V1); test: GSK_TCAKS: pIC50 CYP51 from Trypanosoma cruzi.; format: functional
Sterol 14-alpha demethylase, sequence (Q7Z1V1 whole entry): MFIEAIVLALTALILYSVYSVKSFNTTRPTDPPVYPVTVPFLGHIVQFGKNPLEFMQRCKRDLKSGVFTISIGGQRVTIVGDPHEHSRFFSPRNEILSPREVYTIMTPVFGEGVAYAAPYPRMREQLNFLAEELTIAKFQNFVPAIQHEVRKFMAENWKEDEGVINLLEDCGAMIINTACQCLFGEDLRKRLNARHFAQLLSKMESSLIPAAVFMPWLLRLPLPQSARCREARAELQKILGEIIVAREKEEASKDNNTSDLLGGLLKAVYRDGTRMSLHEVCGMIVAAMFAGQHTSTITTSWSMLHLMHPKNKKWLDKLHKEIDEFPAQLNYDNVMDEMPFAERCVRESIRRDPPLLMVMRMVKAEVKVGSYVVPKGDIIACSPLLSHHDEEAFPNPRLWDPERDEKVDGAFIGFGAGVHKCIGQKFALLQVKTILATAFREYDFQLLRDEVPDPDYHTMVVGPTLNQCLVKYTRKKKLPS

[6] = test system: Trypanosoma cruzi; test: GSK_TCAKS: pIC50 Trypanosoma cruzi Imaging: Amastigotes/Cell. […] Cells were then washed once with PBS before infection. T. cruzi trypomastigotes, collected at days 5 to 8 after infection from LLC-MK2 parasite infected cultures, were allowed to swim out for 4h at 37C from a centrifuged pellet (2,500 rpm/10 min/room temperature). Trypomastigotes were then collected and counted in a CASY Cell Counter. Trypomastigotes, in supplemented DMEM, were added to H9c2 cultures in a multiplicity of infection of 1 and incubated for 18 h. Cells were washed once with PBS before incubation of the infected H9c2 monolayer with trypsin (Life-Technologies) to detach cells from the flask. Cells were counted in a CASY Cell Counter using a 150 um capillary and their density set at 5 * 10^4 cells per mL in supplemented assay DMEM. Infected H9c2 were dispensed into 384-well poly-lysine coated assay plates at 50uL per well using a Multidrop Combi dispenser. After seeding them, the plates were incubated at 37C, 5% CO2 for 72h. Cultures were then fixed and stained by addition of 50 uL of a solution containing 8% formaldehyde and 4 uM DRAQ5 DNA dye (BioStatus, UK) per well. […] Five images were collected per well for reliable statistical analysis. Automated image analysis was performed with a script developed on Acapella High Content Imaging and Analysis Software (PerkinElmer). Output: number of amastigotes per cell as infection level measurement.; format: functional, organism-based, Rattus norvegicus; details: H9c2, 4 h
[7] = test system: Leishmania donovani; test: as §1, with “THP-1 Host” for “Infected”, “THP-1 cell count” for “Percent of infected macrophage cells”; format: functional, organism-based, Homo sapiens
[8] = test system: Trypanosoma cruzi; test: GSK_TCAKS: pIC50 Trypanosoma cruzi viability assay using beta-GAL activity. This assay was run at single shot at 5uM compound concentration per well. The biological reagents consisted of NIH-3T3 host cells and trypomastigotes parasitic cells; both cell types were set to a 3.3 * 10^5 cells/mL dilution in assay DMEM by means of a CASY cell counter device using a 60um capillary. 6 uL of the mixture were dispensed per well (about 1 * 10^3 host-cells and 1 * 10^3 parasites) with a Multidrop Combi dispenser. […] In all wells, the percentage of DMSO never exceeded 0.5%. Plates incubated for four days at 37C, 5% CO2. The substrate used for the assay fluorescence intensity (FLINT) readout was resorufin-beta-D-galactopiranoside (Sigma-Aldrich) at 5uM per well. It was diluted in PBS supplemented with the soft detergent Igepal (Fluka).; format: functional, organism-based, Mus musculus; details: Tulahuen, NIH3T3
[9] = test system: Trypanosoma brucei brucei; test: GSK_TCAKS: pIC50 Trypanosoma brucei viability assay using fluorescence intensity. Assay plates (1536-well) were prepared by dispensing 25nL of compound solution per well using an Echo acoustic dispenser (Labcyte).; format: functional, organism-based; details: Lister 427, 2 h
[10] = test system: Trypanosoma cruzi; test: as §2, with “H2C9” for “Trypanosoma cruzi”, “H9c2 Host Cardiomyocytes.” for “Infected Cells.”, “Number” for “percentage”, “H9c2 Host Cardiomyocytes nuclei to determine drug-related cytotoxicity.” for “infected cells per well as a second infection marker.”; format: functional, organism-based, Rattus norvegicus; details: H9c2, 4 h
[11] = test system: Leishmania donovani; test: GSK_TCAKS: pIC50 Leishmania donovani viability assay using fluorescence intensity. Assay plates (1536-well) were prepared by adding 30nL per well of compound. For single shot assay, the final compound concentration was 5uM. […] Briefly, eGFP LdBOB axenic amastigotes were harvested, fixed and counted in a CASY cell counter (Roche-Applied Science). A final concentration of 1.5 * 10^5 cells per well were prepared in amastigote media containing 500 U/mL penicillin/streptomycin (Invitrogen) and 6uL was dispensed to each experimental well using a Multidrop Combi dispenser (Thermo Scientific). 6uL of assay media was dispensed to control columns used as reference for 100% compound response. Following incubation for 72 h at 37C, 5% CO2, 2 uL of resazurin was added to each well at a final concentration of 0.5 mM in phosphate buffered saline (PBS) with IGEPAL (Sigma-Aldrich), 0.05% (v/v).; format: functional, organism-based
[12] = test system: Trypanosoma brucei brucei; test: GSK_TCAKS: pIC50 Trypanosoma brucei viability assay using luminiscence. Assay plates (1536-well) were prepared. T. brucei cultures were harvested and counted in a CASY cell counter. A parasite suspension was prepared at a final concentration of 5 * 10^4 cells/mL in complete HMI9 medium and 6uL was dispensed to all wells containing compounds using a Multidrop Combi dispenser. 6uL of HMI9 media with 0.4% DMSO were dispensed to control columns. Plates were incubated for 24 h at 37C, 5% CO2 then tempered for 10 min at room temperature. ATP content was quantified by adding 4 uL of CellTiter-Glo Reagent (Promega) according to the manufacturer's instructions. Luminescence was measured using a ViewLux.; format: functional, organism-based; details: Lister 427, CASY

SMILES	IC50 [1] [µM]	IC50 [2] [µM]	IC50 at 48 h [3] [µM]	IC50 [4] [µM]	IC50 [5] [µM]	IC50 [6] [µM]	IC50 [7] [µM]	IC50 [8] [µM]	IC50 [9] [µM]	IC50 [10] [µM]	IC50 [11] [µM]	IC50 [12] [µM]
O=C(Nc1nc(-c2ccccn2)cs1)N1C[C@H]2C[C@@]2(c2ccccc2)C1	0.501	0.501	25.1	0.398	39.8	0.251	7.94	0.501	0.501	0.794	2	0.631
COc1cccc(NS(=O)(=O)c2ccc3ncc(C(=O)NCCC(C)C)c(O)c3c2)c1	> 50.1	31.6	31.6	> 50.1	6.31	15.8	> 50.1	> 50.1	0.316	12.6	> 50.1	0.631
CCc1ccccc1[C@@H](C)NC(=O)c1cnc2c(cnn2CC)c1NC1CCN(C(N)=O)CC1	> 50.1	> 50.1	> 100	> 50.1	79.4	39.8	> 50.1	25.1	0.251	> 50.1	> 50.1	0.501
N#Cc1cccc(Cc2cc(Nc3cc(C4CC4)[nH]n3)nc(N3CC[C@H]3C(N)=O)n2)c1	0.2	3.98	> 100	0.0794	50.1	1	0.0316	0.398	0.0398	0.00398	0.631	0.0631
CC(C)C[C@H](NC(=O)c1ccc(-c2ccccc2)o1)C(=O)NC1(C#N)CC1	> 50.1	> 50.1	> 100	15.8	> 100	25.1	> 50.1	31.6	0.1	> 50.1	> 50.1	0.0501
CCc1ccc2nc(NC(=O)c3cc(N4CCOCC4)ccn3)sc2c1	1.26	0.794	> 100	0.794	> 100	0.501	10	2.51	0.501	39.8	2	1
Cc1ccc(NC(=O)c2ccnc(N3CCCC3)c2)cc1-c1cc(C(N)=O)ccc1C	39.8	10	> 100	25.1	3.98	3.16	31.6	6.31	0.1	> 50.1	25.1	0.251
Cc1ccc(-c2csc(NC(=O)C=Cc3ccc(S(=O)(=O)N4CCOCC4)cc3)n2)o1	5.01	10	> 100	0.794	20	10	> 50.1	7.94	3.16	31.6	6.31	5.01
COCCn1c(-c2ccccc2)cnc1NCc1ccccc1OC	6.31	15.8	20	6.31	7.94	6.31	50.1	14.1	25.1	> 50.1	> 50.1	15.8
O=C(NCCc1csc(-c2ccc(F)cc2)n1)c1ccco1	> 50.1	1.58	> 100	> 50.1	> 100	1.26	> 50.1	2.24	0.398	> 50.1	> 50.1	0.501
